Experimental findings from PMC8629796, “Inhibition of the hERG potassium channel by phenanthrene: a polycyclic aromatic hydrocarbon pollutant” (Cellular and Molecular Life Sciences: CMLS, 2021) are described below.

Data set [1] concerns the target T1, hERG (hERG1a, Kv11.1) potassium channel (Homo sapiens, UniProt Q12809, Y652A).
T1 construct: gene KCNH2; hERG1a Y652A transiently expressed in HEK293 cells
Put plainly: whole-cell patch clamp, tail current inhibition. In kind it is cell-based.

A further data set concerns the target T2, zebrafish ERG (zERG) (Danio rerio, UniProt A0A8M1PIE0).
T2 construct: gene kcnh6a
Put plainly: whole-cell patch clamp, current inhibition. In kind it is cell-based.

Data set [2] deals with T3, hERG (hERG1a, Kv11.1) potassium channel (Homo sapiens, UniProt Q12809).
T3 construct: gene KCNH2; WT hERG1a stably expressed in HEK293 cells
Kind of data set: whole-cell patch clamp, tail current inhibition. In kind it is cell-based. For orientation: In patch-clamp work, channel activity is measured electrically.

Data set [3] deals with T4, hERG (hERG1a, Kv11.1) potassium channel (Homo sapiens, UniProt Q12809, F656T).
T4 construct: gene KCNH2; hERG1a F656T transiently expressed in HEK293 cells
Put plainly: whole-cell patch clamp, tail current block by […]. In kind it is cell-based.

Data set [4] addresses T5, hERG (hERG1a, Kv11.1) potassium channel (Homo sapiens, UniProt Q12809, F656V).
T5 construct: gene KCNH2

SMILES strings stand for the structures.

T1 sequence (Q12809 whole entry Y652A): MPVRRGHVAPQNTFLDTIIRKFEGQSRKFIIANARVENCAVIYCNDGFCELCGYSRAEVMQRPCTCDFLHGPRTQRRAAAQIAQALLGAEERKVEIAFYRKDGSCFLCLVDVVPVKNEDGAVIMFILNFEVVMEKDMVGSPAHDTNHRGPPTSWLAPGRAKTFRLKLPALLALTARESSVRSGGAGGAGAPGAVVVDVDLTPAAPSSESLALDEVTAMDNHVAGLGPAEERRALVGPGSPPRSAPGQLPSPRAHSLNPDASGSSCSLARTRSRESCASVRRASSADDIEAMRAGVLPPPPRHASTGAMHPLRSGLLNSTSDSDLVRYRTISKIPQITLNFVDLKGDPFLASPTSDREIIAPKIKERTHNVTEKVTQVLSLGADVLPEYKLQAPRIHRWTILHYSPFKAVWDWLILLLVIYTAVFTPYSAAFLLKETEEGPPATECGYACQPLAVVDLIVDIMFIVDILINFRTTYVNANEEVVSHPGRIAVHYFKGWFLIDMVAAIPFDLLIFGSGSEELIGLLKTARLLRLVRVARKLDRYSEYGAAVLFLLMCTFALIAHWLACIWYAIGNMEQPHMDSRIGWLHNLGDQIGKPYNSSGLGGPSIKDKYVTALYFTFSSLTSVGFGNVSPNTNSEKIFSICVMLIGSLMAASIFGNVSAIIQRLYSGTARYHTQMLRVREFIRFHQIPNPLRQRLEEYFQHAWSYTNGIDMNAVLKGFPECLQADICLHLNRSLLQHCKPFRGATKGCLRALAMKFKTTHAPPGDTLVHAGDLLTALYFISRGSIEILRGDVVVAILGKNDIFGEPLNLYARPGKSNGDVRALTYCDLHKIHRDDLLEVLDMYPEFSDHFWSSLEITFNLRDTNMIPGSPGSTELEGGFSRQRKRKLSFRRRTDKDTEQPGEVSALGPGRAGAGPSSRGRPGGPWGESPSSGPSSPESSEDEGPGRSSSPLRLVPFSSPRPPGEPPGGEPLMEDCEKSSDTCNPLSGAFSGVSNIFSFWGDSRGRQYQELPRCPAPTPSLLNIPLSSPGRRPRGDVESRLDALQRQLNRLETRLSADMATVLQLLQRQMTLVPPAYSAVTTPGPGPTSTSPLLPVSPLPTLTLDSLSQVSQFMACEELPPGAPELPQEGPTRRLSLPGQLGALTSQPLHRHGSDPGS
T2 sequence (A0A8M1PIE0 1-1186): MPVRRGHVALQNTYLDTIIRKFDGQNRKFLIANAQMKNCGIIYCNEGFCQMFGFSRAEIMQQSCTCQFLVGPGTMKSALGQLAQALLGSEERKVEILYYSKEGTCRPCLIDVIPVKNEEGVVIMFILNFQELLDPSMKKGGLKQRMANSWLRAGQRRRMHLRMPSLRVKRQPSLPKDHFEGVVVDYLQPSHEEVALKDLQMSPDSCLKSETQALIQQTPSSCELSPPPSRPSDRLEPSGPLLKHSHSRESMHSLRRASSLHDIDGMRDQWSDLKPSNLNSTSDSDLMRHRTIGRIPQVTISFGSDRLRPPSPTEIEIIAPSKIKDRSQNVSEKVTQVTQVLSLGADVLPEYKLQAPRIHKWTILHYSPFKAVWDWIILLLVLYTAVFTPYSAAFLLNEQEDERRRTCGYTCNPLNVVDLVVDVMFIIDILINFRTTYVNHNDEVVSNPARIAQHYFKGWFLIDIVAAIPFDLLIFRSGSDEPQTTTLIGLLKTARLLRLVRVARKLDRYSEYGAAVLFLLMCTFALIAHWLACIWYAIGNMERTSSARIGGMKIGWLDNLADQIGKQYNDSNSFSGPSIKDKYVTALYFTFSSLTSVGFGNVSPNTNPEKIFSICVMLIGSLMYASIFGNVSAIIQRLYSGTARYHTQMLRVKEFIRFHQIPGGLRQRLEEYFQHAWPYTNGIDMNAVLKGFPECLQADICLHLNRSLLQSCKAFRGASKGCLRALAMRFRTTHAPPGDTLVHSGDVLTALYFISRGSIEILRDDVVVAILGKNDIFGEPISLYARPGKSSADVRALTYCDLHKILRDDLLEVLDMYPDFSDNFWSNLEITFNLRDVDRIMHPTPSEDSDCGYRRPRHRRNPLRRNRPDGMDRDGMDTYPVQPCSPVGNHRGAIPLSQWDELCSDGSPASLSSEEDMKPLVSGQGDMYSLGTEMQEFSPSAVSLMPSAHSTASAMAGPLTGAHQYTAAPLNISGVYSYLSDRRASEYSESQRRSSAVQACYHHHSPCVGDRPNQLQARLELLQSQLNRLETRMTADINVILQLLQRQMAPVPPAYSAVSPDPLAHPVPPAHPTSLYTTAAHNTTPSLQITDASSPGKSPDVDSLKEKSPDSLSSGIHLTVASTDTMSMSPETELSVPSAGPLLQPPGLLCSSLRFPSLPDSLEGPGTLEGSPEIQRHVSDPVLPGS
T5 sequence (Q12809 whole entry F656V): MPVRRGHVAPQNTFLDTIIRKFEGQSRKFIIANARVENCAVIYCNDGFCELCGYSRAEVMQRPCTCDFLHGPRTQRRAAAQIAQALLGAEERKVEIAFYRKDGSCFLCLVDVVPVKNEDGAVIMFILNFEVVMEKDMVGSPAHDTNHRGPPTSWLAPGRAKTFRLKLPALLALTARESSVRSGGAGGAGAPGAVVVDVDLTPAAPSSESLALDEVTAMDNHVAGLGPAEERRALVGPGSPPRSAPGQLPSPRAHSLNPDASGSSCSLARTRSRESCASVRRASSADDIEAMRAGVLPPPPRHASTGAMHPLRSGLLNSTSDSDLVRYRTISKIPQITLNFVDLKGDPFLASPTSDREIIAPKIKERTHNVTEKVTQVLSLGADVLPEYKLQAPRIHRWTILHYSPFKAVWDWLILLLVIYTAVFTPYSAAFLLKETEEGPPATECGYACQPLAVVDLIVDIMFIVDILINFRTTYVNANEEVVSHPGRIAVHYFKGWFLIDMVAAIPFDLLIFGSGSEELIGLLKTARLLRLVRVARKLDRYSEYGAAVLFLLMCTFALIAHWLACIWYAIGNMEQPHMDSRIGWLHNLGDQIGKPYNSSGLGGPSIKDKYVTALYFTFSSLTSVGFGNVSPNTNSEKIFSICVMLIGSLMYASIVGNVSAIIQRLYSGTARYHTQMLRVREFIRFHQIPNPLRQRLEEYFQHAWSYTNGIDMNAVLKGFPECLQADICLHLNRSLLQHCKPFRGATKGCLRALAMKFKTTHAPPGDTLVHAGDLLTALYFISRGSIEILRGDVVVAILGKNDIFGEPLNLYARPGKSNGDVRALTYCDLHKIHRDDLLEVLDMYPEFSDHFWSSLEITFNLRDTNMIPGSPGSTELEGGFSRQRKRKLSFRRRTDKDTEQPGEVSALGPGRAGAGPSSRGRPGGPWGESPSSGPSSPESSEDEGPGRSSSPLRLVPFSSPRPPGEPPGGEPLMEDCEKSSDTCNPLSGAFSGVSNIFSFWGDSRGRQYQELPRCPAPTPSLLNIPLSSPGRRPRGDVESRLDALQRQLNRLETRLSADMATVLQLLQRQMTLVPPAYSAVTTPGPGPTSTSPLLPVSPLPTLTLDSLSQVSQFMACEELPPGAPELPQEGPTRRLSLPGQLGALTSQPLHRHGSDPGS
T3 sequence (Q12809 whole entry): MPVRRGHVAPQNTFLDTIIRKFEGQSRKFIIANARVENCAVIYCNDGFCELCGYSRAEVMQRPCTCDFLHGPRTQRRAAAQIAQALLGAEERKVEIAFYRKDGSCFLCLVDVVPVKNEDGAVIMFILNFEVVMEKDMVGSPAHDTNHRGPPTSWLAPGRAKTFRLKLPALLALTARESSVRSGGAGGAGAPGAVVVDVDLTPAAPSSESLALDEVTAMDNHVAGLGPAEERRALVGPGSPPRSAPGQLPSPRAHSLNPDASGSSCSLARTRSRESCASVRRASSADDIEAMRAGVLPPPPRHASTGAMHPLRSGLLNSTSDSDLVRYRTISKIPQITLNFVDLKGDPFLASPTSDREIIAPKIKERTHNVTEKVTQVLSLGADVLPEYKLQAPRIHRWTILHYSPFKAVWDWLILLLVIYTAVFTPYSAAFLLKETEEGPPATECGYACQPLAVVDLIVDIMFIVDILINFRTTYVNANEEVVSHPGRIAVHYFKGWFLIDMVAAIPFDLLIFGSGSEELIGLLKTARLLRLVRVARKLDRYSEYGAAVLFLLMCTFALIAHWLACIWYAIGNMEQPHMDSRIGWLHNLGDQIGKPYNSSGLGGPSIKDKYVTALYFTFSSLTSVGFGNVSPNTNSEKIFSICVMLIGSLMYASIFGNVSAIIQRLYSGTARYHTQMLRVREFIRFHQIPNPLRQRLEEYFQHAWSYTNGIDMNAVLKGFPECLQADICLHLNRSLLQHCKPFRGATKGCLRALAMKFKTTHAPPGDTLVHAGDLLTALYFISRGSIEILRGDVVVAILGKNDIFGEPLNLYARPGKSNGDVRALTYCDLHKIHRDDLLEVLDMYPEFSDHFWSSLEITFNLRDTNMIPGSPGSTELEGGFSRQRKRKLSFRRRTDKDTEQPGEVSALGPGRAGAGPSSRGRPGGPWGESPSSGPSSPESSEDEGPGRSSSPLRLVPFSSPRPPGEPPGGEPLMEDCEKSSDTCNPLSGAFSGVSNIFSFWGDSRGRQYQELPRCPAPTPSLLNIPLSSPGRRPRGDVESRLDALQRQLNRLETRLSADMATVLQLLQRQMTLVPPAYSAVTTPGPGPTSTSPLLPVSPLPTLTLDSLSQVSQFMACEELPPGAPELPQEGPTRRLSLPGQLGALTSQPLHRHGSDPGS

On to `c1ccc2c(c1)ccc1ccccc12` [phenanthrene], for which the IC50 (as a rule, the concentration needed to halve the response being measured) in data set [1] is 0.46 ± 0.01 µM; against zebrafish ERG (zERG) it was 8.77 ± 0.93 µM; in data set [2] it was 17.6 ± 1.7 µM. Also, the “whole-cell patch clamp, tail current block by 30 μM” value in data set [3] is “this effect was not statistically significantly different from block of WT IhERG”; in data set [4] it was “also did not impair the inhibitory effect of phenanthrene, showing a trend towards increased block”.
